We go through three compounds from US20260035670A1, “IN VITRO CONSTRUCT USEFUL FOR DRUG TOXICITY SCREENING” (Wake Forest University Health Sciences, priority 2022, published 2026).

The subject of data set [1] is USC in 3D silk fiber matrix (3D USC-SFM). Description: mtDNA content (q-PCR) and mitochondrial mass of USC in 3D USC-SFM treated with ddC. The data set is classed as cell-based, human. The protocol: (§1) To determine the dose effect of ddC on cell viability, mitochondrial function and oxidative stress of USC in both 3D cultures, ddC was added to spheroids and USC-SFM at different doses: […] 2 days, 3 replicates per concentration. To evaluate the time-dependent effect of ddC on USC in 3D cultures, spheroids and USC-SFM samples were assayed 2-6 weeks after administering ddC, 3 replicates per time point. DMSO (0.1%) was used as a control.
(§2) To measure the levels of cell senescence genes ([…], 21 and Rb) (Kang et al. Science 349 (2015) aaa5612) and mitochondrial DNA (mtDNA) content, mRNA expression of spheroid (n ¼ 3) and 3D USC-SFM (n ¼ 3) samples were assessed using BioRad CFX connect Real-time PCR Detection System (Rooney et al. Methods Mol. Biol. 1241 (2015) 23e38). Genomic DNA was extracted from the cells using a DNeasy Blood & Tissue Kit (Qiagen, Valencia, Cat. No 69504) according to the manufacturer's protocol. The Q-PCR recipe was a mix with SYBR Green SuperMix (ThermoFisher, USA, Cat. No 4367659) using both the mitochondrial and the nuclear primers, and this temperature cycling was used: initial denaturing at 50° C. for 2 min, 95° C. for 15 min, followed by 40 cycles of denaturing at 95° C. for 30 s, annealing at 60° C. for 1 s and extension at 95° C. for 15 s, 60° C. for 1 min, annealing at 95° C. for 15 s, 60° C. for 1 min and dissociating at 95° C. for 15 s.

For another data set, the system named is USC in 3D spheroids. As to the kind of experiment: mtDNA content (q-PCR) and mitochondrial mass of USC in 3D spheroids treated with ddC. Type of data set: cell-based, human. How it is done: (§3) To determine the dose effect of ddC on cell viability, mitochondrial function and oxidative stress of USC in both 3D cultures, ddC was added to spheroids and USC-SFM at different doses: 0.2, 2 and 10 μM in the culture medium every 2 days, 3 replicates per concentration. To evaluate the time-dependent effect of ddC on USC in 3D cultures, spheroids and USC-SFM samples were assayed 2-6 weeks after administering ddC, 3 replicates per time point. DMSO (0.1%) was used as a control.
as §2

In the next data set the test system is USC in 3D USC-SFM. As to the kind of experiment: Cell viability/growth of 3D USC-SFM treated with ddC (CCK-8). Type of data set: cell-based, human. How it is done:
as §3, with “Cell proliferation or viability was measured at different time points after USC were seeded on 2D, spheroids and 3D-SFM in 96-well plates, respectively, assessed by Cell Counting Kit-8 (CCK-8 assay, Dojindo, Japan), according to manufacturer's instructions. The absorbance at 450 nmwas measured using microplate reader (MultiSkan FC, Thermo, USA). To determine” for “To determine”

The test system of a further data set is USC in 2D culture. Description: Cell viability and growth of USC in 2D culture treated with ddC. Type of data set: cell-based, human. How it is done: Cell proliferation or viability was measured at different time points after USC were seeded on 2D, spheroids and 3D-SFM in 96-well plates, respectively, assessed by Cell Counting Kit-8 (CCK-8 assay, Dojindo, Japan), according to manufacturer's instructions. The absorbance at 450 nmwas measured using microplate reader (MultiSkan FC, Thermo, USA).

In data set [2] the test system is oxidative phosphorylation complexes I-V in USC of 3D USC-SFM. As to the kind of experiment: Oxidative phosphorylation complexes I-V in 3D USC-SFM after ddC (Western blot). The data set is classed as cell-based, human. How it is done:
as §1
(§4) To generate sufficient cell numbers for immunoblot analysis, USC (5×10^5 cells) within spheroids and 1-SFM were loaded in 81-well molds made by Micro-Tissues 3D Petri Dish (Sigma, USA). USC in 2D culture were seeded onto a 6-well plate at a density of 5×10^5 cells/well as control. After a wash of the cell samples with PBS, the USC were harvested and incubated for 30 min in the presence of […] of lysis buffer (Pierce, Rockford, IL) with 1% protease/phosphatase inhibitor cocktail (Cell Signaling Technology, Danvers, MA), vortexing every 5 min during incubating. The lysate was clarified by centrifugation, and protein concentrations were tested by Pierce™ BCA Protein Assay Kit. Following separation in 15% SDS-PAGE gels, the proteins were transferred onto a PVDF membrane (ThermoFisher) by a Bio-Rad Trans-Blot SD Semi-Dry Transfer Cell under 12 V for 1 h.
(§5) Individual activity of oxidative phosphorylation complexes I, II, II IV, V94 and mitochondrial SOD2 in USC before or after treatment with ddC at three doses were assessed. The membrane was blocked for 30 min in PBS-0.1% Tween 20 (PBST) containing 5% bovine serum albumin (BSA), washed with PBST, and incubated with the primary antibodies for 2 h or 4° C. overnight, diluted by PBST containing 5% BSA. After extensive washing with PBST, the membrane was incubated in the secondary antibodies correspondingly for 1 h at room temperature. The washed membrane was treated with an Immobilon ECL Ultra Western HRP Substrate (Millipore Sigma) and analyzed with a Fujifilm LAS-3000 Luminescent Image Analyzer system.

Data set [3] deals with oxidative phosphorylation complexes I-V in USC of 3D spheroids. As to the kind of experiment: Oxidative phosphorylation complexes I-V in 3D USC spheroids after ddC (Western blot). The data set is classed as cell-based, human. How it is done:
as §3, §4, §5
(In western blotting, separated proteins are transferred to a membrane and probed.)

The test system of the next data set is microglia cells. The settings on record: George et al. 2021; cited from earlier work.
The conditions of data set [4]: Gorwood et al. 2020; cited from earlier work.
In the next data set the test system is CD4+ T cells. To be noted: Korencak et al. 2019; cited from earlier work.
[5] abbreviates: 3D USC-SFM, six weeks after ddC (0.2, 2, and 10 μM), vs 0.1% DMSO control.
[6] abbreviates: 3D spheroids, six weeks after ddC (0.2, 2, and 10 µM), vs 0.1% DMSO control.

As to `Nc1ccn([C@H]2CC[C@@H](CO)O2)c(=O)n1` [ddC, Zalcitabine], the “Levels of mtDNA content” value is “significantly decreased” in [1] (3D USC-SFM, 2 and 6 weeks, ddC 0.2, 2, or 20 μM, vs DMSO standardized as 100%); “significantly decreased” in the data set on USC in 3D spheroids (3D spheroid of USC, 2 and 6 weeks, ddC 0.2, 2, or 20 μM, vs DMSO standardized as 100%). The “Manner of decrease of mtDNA content” value is recorded as “time-depended manner” in data set [1] (3D USC-SFM, q-PCR) and “dose-dependent manner” in the data set on USC in 3D spheroids (3D spheroids of USC, q-PCR). The mitochondrial mass result (in [1] (setting [5]); in the data set with USC in 3D spheroids (setting [6])) was “significantly decreased” each time. The mtDNA content result is reported as “significantly decreased” in data set [1] (setting [5]); “significantly inhibited” in [1] (ddC at 2 or 20 μM compared to 0.1 μM ddC, 3D culture of USC (model not given)); “significantly decreased” with USC in 3D spheroids (setting [6]). For the same compound, in the data set on USC in 3D USC-SFM (3D USC-SFM, 3 days, or 1, 2, 4, and 6 weeks), the “cell survival and growth” value is recorded as “did not significantly affect”. The cytotoxicity entry with USC in 3D USC-SFM (USC in 3D cultures) is recorded as “mild”. Besides, the “cell viability and growth of USC” value in the data set with USC in 2D culture is reported as “significantly affected”. For the same compound, in the data set with USC in 2D culture (2 weeks after ddC treatment), the “cells remaining on the dishes” value is listed as “few cells remaining”. In addition, the “levels of complex I, and IV” value in [2] (2 weeks, ddC 2 and 10 μM vs low dose (0.1 μM)) was “significantly decreased”. For the same compound, the “mitochondrial toxicity (decreasing levels of complexes I-IV)” value is “significant dose- and time-dependent” in [2] (3D SFM); “significant dose- and time-dependent” in [3] (spheroids). The “Levels of complexes I, II, and III” value in data set [2] (3D SFM-USC treated with ddC) was “significantly decreased”. Besides, in [2] (3D USC-SFM compared to complex levels in spheroids), the “levels of complexes II, III and IV” value is “significantly decreased”. Besides, the “chronic MtT” value in [2] (3D USC-SFM model) is “dose- and time-dependent chronic MtT displayed”. In addition, the “complex I-IV levels” value in data set [2] (3D USC-SFM, ddC 2 and 10 μM, 6 weeks compared to 2 weeks) is “significantly decreased”. Further, in [2] (3D USC-SFM, low dose ddC), the “increase of levels of complexes I, II and IV” value is reported as “did not occur”. In addition, the “mitochondrial function (inhibiting oxidative phosphorylation complex I-IV)” value in data set [2] (3D culture models) is given as “significant impairment”. Moreover, the “levels of complex I, II, III and IV” value in data set [2] (6 weeks, middle and high dose ddC vs low dose) is on record as “significantly declined”. Besides, the “activity of complex II-IV” value in data set [2] (USC-SFM, ddC middle and high doses vs low dose, week 6) is “significantly decreased”. The “expression of ETC complex I-IV” value is reported as “decrease” in data set [2] (USC-SFM, ddC middle and high doses, wk 6); “decrease” in [3] (3D organoids, ddC middle and high doses, wk 6). The “levels of complexes I, II and IV” value in [3] (3D spheroids, low dose ddC) is on record as “significantly increased”. In addition, the “complex I level (only complex affected)” value in [3] (spheroids treated with ddC) is recorded as “declined”.

In the case of `C[C@@H]1CCO[C@H]2Cn3cc(C(=O)NCc4ccc(F)cc4F)c(=O)c(O)c3C(=O)N12` [dolutegravir], in the data set with microglia cells, the mitochondrial dysfunction entry is reported as “induces mitochondrial dysfunction”. Further, in data set [4], the “pro-adipogenic and pro-lipogenic effects, oxidative stress, mitochondrial dysfunction, insulin resistance” value is “display pro-adipogenic and pro-lipogenic effects, and promote oxidative stress, mitochondrial dysfunction, and insulin resistance”. Besides, the “levels of mitochondrial ROS and mitochondrial mass” value in the data set on CD4+ T cells is given as “increased”.

In the case of `COc1cc2c(cc1Cc1cccc(Cl)c1F)c(=O)c(C(=O)O)cn2[C@H](CO)C(C)C` [elvitegravir], the “levels of mitochondrial ROS and mitochondrial mass” value in the data set on CD4+ T cells is recorded as “increased”.
